Patent US20070135383A1, “Phospholipase inhibitors, including multi-valent phospholipase inhibitors, and use thereof, including as lumen-localized phospholipase inhibitors” (priority 2005, published 2007)
Like-named read-outs stand apart in the source and are kept apart here.

Tests used:
PL A2 = details: range given in words, art-known PL A2 inhibitors; cited from earlier work
[1] = Mouse pharmacokinetic study, IV vs oral (Example 18); type: in vivo, male CD-1 mice; details: male, CD-1, mouse, PO 30 mg/kg vs IV 3 mg/kg, serum by LC/MS/MS
Procedure: The plasma exposure of male CD-1 mice to indole and indole-related test articles (TAs) following intravenous (IV, 3 mg/kg) and oral (PO, 30 mg/kg) routes of administration was measured. This model was used to investigate the bioavailability of indole and indole-related TAs in mouse. Mice were selected for the study since they are an accepted species frequently used in pre-clinical evaluation of drugs intended for human use.
Male CD-1 mice (7-8 weeks old) were obtained from Charles River Laboratories (Wilmington, Mass.). Two groups (N=18 and 27) of male CD-1 mice were used for the study. Upon arrival, the animals were placed on Rodent Diet 5001 (Purina Mills, Inc., St. Louis, Mo.).
On study day (−1), indole and indole-related TAs were formulated for oral or IV dosing by mixing the formulation components with test article in the proportions described in Table 10.1. The components were mixed by vortexing and sonicating in a warming bath for 60 minutes. Animals were fasted overnight prior to start of the study. On study day (1), formulations were sonicated for an hour to make sure that no visible particles were present prior to dosing, or if present were evenly distributed in suspension. Formulated test article were stirred continuously during dosing.
All animals were weighed on study day (1) and the body weights were recorded and used for dose calculation. The animals were dosed by either PO or IV route as outlined in Table 10.2. Blood samples (0.5 mL) were collected at specified time intervals into labeled, yellow-capped Microtainer tubes. The tubes were centrifuged (8,000×g, 10 min). Serum was then pipetted off into labeled Eppendorf® tubes and frozen at −80° C. Clinical observations were recorded as needed.
Analysis of serum samples was performed by LC/MS/MS (Waters Quattro Premier, Milford, Mass.). Areas under curves (AUC) were calculated using Graphpad Prism Version 4. Bioavailability was calculated using the following equation: (Bioavailability)=(AUC0-t,oral/AUC0-t,iv)×(Doseiv/Doseoral)×100
where AUC0-t=total area under curve at the last measurable time point

[2] = biological target: T1, mouse group 1B PLA2 (mps PLA2) (Mus musculus, UniProt Q9Z0Y2); assay: Fluorimetric PPyrPM assay for group 1B PLA2 inhibition (Example 12); type: biochemical
T1 construct: made in house; host or cells: E. coli
T1 sequence (Q9Z0Y2 23-146): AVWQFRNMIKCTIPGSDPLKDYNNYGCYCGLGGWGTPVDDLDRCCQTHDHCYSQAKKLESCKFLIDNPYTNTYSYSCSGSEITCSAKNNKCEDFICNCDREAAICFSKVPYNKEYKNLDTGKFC

[3] = biological target: T2, human group 1B PLA2 (hps PLA2) (Homo sapiens, UniProt P04054); assay: as above; type: biochemical
T2 construct: made in house; host or cells: E. coli
T2 sequence (P04054 23-148): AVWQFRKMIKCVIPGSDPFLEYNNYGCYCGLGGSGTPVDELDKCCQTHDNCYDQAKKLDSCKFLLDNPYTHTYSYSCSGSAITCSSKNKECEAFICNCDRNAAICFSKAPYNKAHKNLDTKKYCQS

[4] = biological target: T3, porcine group 1B PLA2 (pps PLA2) (Sus scrofa, UniProt P00592); assay: as above; type: biochemical
T3 construct: purchased
T3 sequence (P00592 23-146): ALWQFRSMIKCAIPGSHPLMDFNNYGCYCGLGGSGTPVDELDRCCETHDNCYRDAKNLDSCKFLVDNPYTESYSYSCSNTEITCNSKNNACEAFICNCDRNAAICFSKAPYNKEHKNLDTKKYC
Procedure, shortened: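 Porcine group 1B PLA2 hydrolysis of 4.2 uM PPyrPM vesicle solution (pre-mixing concentration) in 50 mM Tris-HCl pH 8.0, 50 mM KCl, 1 mM CaCl2 with BSA; inhibitors in 8-point threefold series from 15 uM. After 3 min at 37 °C, fluorescence read at ex 342/em 395 nm; duplicate IC50 by four-parameter fit.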

mice = assay: Toxicology, daily oral gavage for 5 consecutive days (Example 23); type: in vivo
Source text: The purpose of this study was to evaluate the toxicity of indole and indole-related Test Articles when administered daily via oral gavage to mice for 5 consecutive days.
Assessment of toxicity was based on mortality; clinical signs, body weight, food consumption, clinical pathology, and macroscopic pathology data.

[5] = test system: LDL receptor knockout mice; assay: LDL receptor knockout mouse model (Example 20); type: in vivo; details: low fat control diet D12328, 25 or 90 mg/kg/d
Source text: Mice lack an enzyme found in humans, cholesterol ester transfer protein (CETP), which is responsible for the transfer of cholesterol from high density lipoproteins (HDL) to the ApoB-containing lipoproteins such as very low density lipoproteins (VLDL) and low density lipoproteins (LDL). Consequently, LDL cholesterol levels in wild-type mice are very low compared to those seen in humans. The low density lipoprotein receptor (LDLR) is involved with clearing LDL and lipoprotein remnants containing apoE. If the LDLR is inactivated, LDL cholesterol levels rise to levels seen in humans. On a normal rodent diet, the LDL cholesterol levels in LDLR deficient mice are elevated compared to wild-type mice. […]
In these studies and the accompanying figures, Diet D12328 from Research Diets is referred to as the “Low Fat” or Control diet, while Diet D12079B from Research Diets is referred to as the “Western” diet. […] The Test Article content was calculated such that ad libitum consumption by the animals would deliver doses (in mg of Test Article per Kg animal weight per day) approximating those listed in Table 12.
Animals were maintained on the diets for eight weeks. Body weights were recorded weekly. […] The serum was analyzed for total cholesterol, LDL cholesterol, HDL cholesterol, triglycerides (TG), free fatty acid (FFA) and lysophospholipid (LPC) content. […]

[6] = test system: C57BL/6J mouse model of obesity; assay: Mouse diet-induced obesity model (Example 19); type: in vivo; details: low fat control diet D12328, 25 or 90 mg/kg/d
Source text: The high-fat diet-fed C57BL/6J mouse model of human diabetes, originally introduced by Surwit and colleagues (Surwit, R S, et al. (1988) “Diet-induced type II diabetes in C57BL/6J mice”, Diabetes 37: 1163-1167) is a widely accepted, clinically relevant, polygenic model that induces obesity, dyslipidemia, glucose- and insulin-resistance as early as 3 weeks after commencing the high fat diet (Winzell, M S and Ahren, B (2004) “The high-fat diet-fed mouse: a model for studying mechanisms and treatment of impaired glucose tolerance and type 2 diabetes”, Diabetes 53 Suppl 3: S215-219). This model was used to investigate the effects of indole and indole-related Test Articles. Avandia (rosiglitazone) was used as a control Test Article. […]
In these studies and the accompanying figures, Diet D12328 from Research Diets is referred to as the “Low Fat” or Control diet/chow, while Diet D12331 from Research Diets is referred to as the “High Fat” diet. […] The Test Article content was calculated such that ad libitum consumption by the animals would deliver doses (in mg of Test Article per kg animal weight per day) approximating those listed in Table 11.
Animals were maintained on the diets for up to eleven weeks. Body weights were recorded weekly. […] The serum was analyzed for glucose, total cholesterol, triglycerides (TG) and lysophospholipid (LPC) content. […]

[7] = mouse pancreas secreted PLA2, read-out: ILYPSA IC50 mps PLA2
[8] = human pancreas secreted PLA2, read-out: ILYPSA IC50 hps PLA2
[9] = porcine pancreas secreted PLA2, read-out: ILYPSA IC50 pps PLA2

CCc1c(CC(N)=O)c2cc(OCCCP(=O)(O)O)ccc2n1Cc1ccccc1 [LY-311727]
IC50 (PL A2): sub μM range

Cc1c(C(=O)C(N)=O)c2c(OCC(=O)O)nccc2n1Cc1ccccc1 [ILY-II-1, (3-Aminooxalyl-1-benzyl-2-methyl-1H-pyrrolo[3,2-c]pyridin-4-yloxy)-acetic acid]
bioavailability [1]: 11%
IC50 [2]: 230 nM
IC50 [3]: 1150 nM
IC50 [4]: 70 nM

Cc1c(C(=O)C(N)=O)c2c(OCC(=O)O)cccc2n1CCCCCCCCCCCCSCCCCCCCCSCCCCCCCCCCCCn1c(C)c(C(=O)C(N)=O)c2c(OCC(=O)O)cccc21 [ILY-V-26, 2,2′-(1,1′-(12,12′-(Octane-1,8-diylbis(sulfanediyl))bis(dodecane-12,1-diyl))bis(3-(2-amino-2-oxoacetyl)-2-methyl-1H-indole-4,1-diyl))bis(oxy)diacetic acid]
bioavailability [1]: 0%
IC50 [2, 7]: 340 nM
IC50 [3, 8]: 240 nM
IC50 [4, 9]: 260 nM

Cc1c(C(=O)C(N)=O)c2c(OCC(=O)O)cccc2n1CCCCCCCCCCCCOc1ccc(C(C)(C)c2ccc(OCCCCCCCCCCCCn3c(C)c(C(=O)C(N)=O)c4c(OCC(=O)O)cccc43)cc2)cc1 [ILY4011]
clinical pathology data, treated groups vs vehicle control group (mice): no differences
effect of test article in animals fed low fat control diet [5]: No or little effect
effect of test article in animals fed low fat control diet [6]: No or little effect

Cc1c(C(=O)C(N)=O)c2c(OCC(=O)O)cccc2n1CCCCCCCCCCCCOc1ccccc1OCCCCCCCCCCCC(=O)O [ILY-V-41, 12-{2-[12-(3-Aminooxalyl-4-carboxymethoxy-2-methyl-indol-1-yl)-dodecyloxy]-phenoxy}-dodecanoic acid]
bioavailability ([1]; in vivo): 1.62%
IC50 [2, 7]: 1600 nM
IC50 [3, 8]: 1540 nM
IC50 [4, 9]: 1140 nM

C=CCN(CC(=O)OCC)C(=O)COc1ccc(C(=O)OCc2ccccc2)cc1
IC50 (PL A2): μM range

CCN(CC)CCN(Cc1ccc(-c2ccc(C(F)(F)F)cc2)cc1)C(=O)Cn1cc(Cc2ccn(C)n2)c(=O)nc1SCc1ccc(F)cc1 [GB-480848]
IC50 (PL A2): nM or subnM range
